Laboratory results: patent publication US20260035365A1, “1H-PYRROLO[3,2-B]PYRIDINE DERIVATIVES AS IRREVERSIBLE INHIBITORS OF MUTANT EGFR FOR THE TREATMENT OF CANCER” (Bayer Aktiengesellschaft, priority 2022, published 2026)

Assays:
[1] = test system: BA/F3 (insSVD) cells; test: Ba/F3 cell survival assay (Cell Titer-Glo), EGFR-insSVD; type: cell-based; settings: Mus musculus, BaF3, 48 h, without IL-3, with EGF
Method: 293T cells from ATCC were transfected with pBABEpuro expression constructs for WT EGFR or EGFR-insSVD, or EGFR-insSVD T790M, and pCL-Eco packaging vector using Fugene-6 transfection reagent from Promega. Plates were incubated at 37° C. for 48 h. Retrovirus was harvested by filtering the media supernatant through a 0.45 μm filter.
Ba/F3 cells purchased from DSMZ were grown in RPMI+10% FBS+10 ng/mL IL-3 and infected with filtered retroviral supernatant at a 1:2 dilution. Polybrene was added to a concentration of 8 μg/mL, plates were spun for 90 min, and incubated for 16 h at 37° C. 2 μg/mL puromycin was added to the infected cells 24 h after infection and cells were continually grown in the presence of puromycin and 10 ng/mL IL-3. Following stably expressing Ba/F3 cell lines were generated: Ba/F3-EGFR-WT, Ba/F3-EGFR-insSVD, Ba/F3-EGFR-insSVD T790M, (Ba/F3-vector-control).
For cell survival assays, Ba/F3 cells were grown to a density of 1-2 million cells per mL, spun down and resuspended in media without IL-3, and replated at a concentration of 200,000-500,000 cells per mL. The cells ectopically expressing WT EGFR, EGFR-insSVD, or EGFR-insSVD T790M were plated with 10 ng/mL Millipore Culture grade EGF. The cells ectopically expressing pBABEpuro empty vector were plated with 10 ng/mL IL-3.
2 days later, cells were plated in 50 μL in a 384 well plate at a concentration of 4000 cells per well for cells assayed in the absence of IL-3 and 2000 cells per well for cells assayed in the presence of IL-3. 100 nL of compound was added to each well using a 100 nL pin head, and plates were incubated at 37° C. for 48 h.
Cell viability was measured by adding 20 μL of Cell Titer-Glo Luminescent Cell Viability Reagent diluted 1:3 in PBS. Plates were sealed with Perkin Elmer Top-Seal, inverted several times to mix, and immediately centrifuged at 1000 rpm for 2 min. Plates were incubated in low light conditions for 8-10 min and luminescence was measured.

[2] = target: mutEGFR (D770_N771insSVD) (Homo sapiens, UniProt P00533, INS767SVD); test: Exon20-mutant-EGFR (D770_N771insSVD) TR-FRET kinase assay; type: biochemical; settings: 2 mM ATP, 15 min preincubation
Sequence of mutEGFR (D770_N771insSVD) (P00533 with tags, fused parts or gaps INS767SVD limits assumed): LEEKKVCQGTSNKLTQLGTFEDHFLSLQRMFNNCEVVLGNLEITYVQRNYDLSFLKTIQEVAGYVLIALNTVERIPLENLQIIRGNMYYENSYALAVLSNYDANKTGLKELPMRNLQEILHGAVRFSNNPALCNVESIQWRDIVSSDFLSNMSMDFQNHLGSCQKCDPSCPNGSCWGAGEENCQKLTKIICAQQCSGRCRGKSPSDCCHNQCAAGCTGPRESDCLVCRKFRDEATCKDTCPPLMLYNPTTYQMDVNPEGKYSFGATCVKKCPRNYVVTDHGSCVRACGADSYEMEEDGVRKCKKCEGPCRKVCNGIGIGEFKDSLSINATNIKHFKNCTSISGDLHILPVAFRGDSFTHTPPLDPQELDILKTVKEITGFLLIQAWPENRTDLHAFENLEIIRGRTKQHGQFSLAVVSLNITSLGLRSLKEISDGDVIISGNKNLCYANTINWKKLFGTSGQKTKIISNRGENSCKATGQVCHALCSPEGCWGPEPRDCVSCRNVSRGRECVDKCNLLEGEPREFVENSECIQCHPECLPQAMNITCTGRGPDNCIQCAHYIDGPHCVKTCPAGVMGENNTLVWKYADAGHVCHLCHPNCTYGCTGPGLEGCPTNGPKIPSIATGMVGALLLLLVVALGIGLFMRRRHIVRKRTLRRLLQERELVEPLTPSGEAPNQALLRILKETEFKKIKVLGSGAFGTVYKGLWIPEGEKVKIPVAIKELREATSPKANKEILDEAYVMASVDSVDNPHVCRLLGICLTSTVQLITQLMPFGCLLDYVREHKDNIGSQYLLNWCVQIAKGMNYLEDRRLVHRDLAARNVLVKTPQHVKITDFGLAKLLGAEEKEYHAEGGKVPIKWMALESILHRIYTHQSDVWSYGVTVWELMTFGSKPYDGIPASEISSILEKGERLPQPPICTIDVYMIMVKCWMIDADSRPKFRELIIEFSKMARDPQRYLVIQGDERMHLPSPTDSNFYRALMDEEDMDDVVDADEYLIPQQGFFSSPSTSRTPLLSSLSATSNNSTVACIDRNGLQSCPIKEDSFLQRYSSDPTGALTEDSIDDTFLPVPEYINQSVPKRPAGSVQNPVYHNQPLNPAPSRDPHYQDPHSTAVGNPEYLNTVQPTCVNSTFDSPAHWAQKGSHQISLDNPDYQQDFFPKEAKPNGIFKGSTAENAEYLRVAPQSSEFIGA
Excerpt: Inhibitory activity of compounds of the present invention against an Epidermal Growth Factor Receptor (EGFR) with an insertion of the amino acids sequence SVD between D770 and N771 (SEQ ID No. 5) was quantified employing the TR-FRET based kinase activity assay as described in the following paragraphs.
A recombinant fusion protein of N-terminal Glutathion-S-Transferase (GST) and a fragment of human EGFR variant (amino acids R669 to A1210 with insertion of the amino acids sequence SVD between D770 and N771 (SEQ ID No. 5) (“EGFR ins SVD”), expressed in Sf9 insect cells and purified via affinity chromatography using Glutathion Sepharose as described above, was used as a kinase. As substrate for the kinase reaction the biotinylated peptide biotin-Ahx-AEEEEYFELVAKKK (C-terminus in amide form) (SEQ ID No. 6) was used which can be purchased e.g. form the company Biosynthan GmbH (Berlin-Buch, Germany).
For the assay 50 nl of a 100-fold concentrated solution of the test compound in DMSO was pipetted into either a black low volume 384 well microtiter plate or a black 1536 well microtiter plate (both Greiner Bio-One, Frickenhausen, Germany), 2 μl of a solution of EGFR in aqueous assay buffer [50 mM Hepes pH 7.0, 10 mM MgCl2, 1 mM dithiothreitol, 0.5 mM EGTA, 0.3 mM activated sodium ortho-vanadate, 0.005% (w/v) bovine serum albumin, 0.005% (v/v) Tween-20] were added and the mixture was incubated for 15 min at 22° C. to allow pre binding of the test compounds to the enzyme before the start of the kinase reaction. […] The concentration of EGFR was adjusted depending of the activity of the enzyme lot and was chosen appropriate to have the assay in the linear range, typical concentration was 15 pg/μl. The reaction was stopped by the addition of 3 μl of a solution of HTRF detection reagents (83.3 nM streptavidine-XL665 [Cisbio Bioassays, Codolet, France] and 1.67 nM PT66-Tb-Cryptate, a terbium-cryptate labelled anti-phospho-tyrosine antibody from Cisbio Bioassays [instead of the PT66 Tb cryptate PT66 Eu Chelate from Perkin Elmer can also be used]) in an aqueous EDTA-solution (133.3 mM EDTA, 0.2% (w/v) bovine serum albumin in 50 mM HEPES pH 7.5).
The resulting mixture was incubated 1 h at 22° C. to allow the binding of the biotinylated phosphorylated peptide to the streptavidine-XL665 and the PT66-Tb-Cryptate. Subsequently, the amount of phosphorylated substrate was evaluated by measurement of the resonance energy transfer from the PT66-Tb-Cryptate to the streptavidine-XL665. Therefore, the fluorescence emissions at 620 nm and 665 nm after excitation at 337 nm were measured in a HTRF reader, e.g. a Pherastar (BMG Labtechnologies, Offenburg, Germany) or a Viewlux (Perkin-Elmer). The ratio of the emissions at 665 nm and at […] was taken as the measure for the amount of phosphorylated substrate. The data were normalised (enzyme reaction without inhibitor=0% inhibition, all other assay components but no enzyme=100% inhibition).

[3] = target: mutEGFR (D770_N771insNPG, T790); test: mutEGFR (D770_N771insNPG, T790) kinase assay; type: biochemical, human
Sequence of mutEGFR (D770_N771insNPG, T790) (P00533 with tags, fused parts or gaps INS770NPG limits assumed): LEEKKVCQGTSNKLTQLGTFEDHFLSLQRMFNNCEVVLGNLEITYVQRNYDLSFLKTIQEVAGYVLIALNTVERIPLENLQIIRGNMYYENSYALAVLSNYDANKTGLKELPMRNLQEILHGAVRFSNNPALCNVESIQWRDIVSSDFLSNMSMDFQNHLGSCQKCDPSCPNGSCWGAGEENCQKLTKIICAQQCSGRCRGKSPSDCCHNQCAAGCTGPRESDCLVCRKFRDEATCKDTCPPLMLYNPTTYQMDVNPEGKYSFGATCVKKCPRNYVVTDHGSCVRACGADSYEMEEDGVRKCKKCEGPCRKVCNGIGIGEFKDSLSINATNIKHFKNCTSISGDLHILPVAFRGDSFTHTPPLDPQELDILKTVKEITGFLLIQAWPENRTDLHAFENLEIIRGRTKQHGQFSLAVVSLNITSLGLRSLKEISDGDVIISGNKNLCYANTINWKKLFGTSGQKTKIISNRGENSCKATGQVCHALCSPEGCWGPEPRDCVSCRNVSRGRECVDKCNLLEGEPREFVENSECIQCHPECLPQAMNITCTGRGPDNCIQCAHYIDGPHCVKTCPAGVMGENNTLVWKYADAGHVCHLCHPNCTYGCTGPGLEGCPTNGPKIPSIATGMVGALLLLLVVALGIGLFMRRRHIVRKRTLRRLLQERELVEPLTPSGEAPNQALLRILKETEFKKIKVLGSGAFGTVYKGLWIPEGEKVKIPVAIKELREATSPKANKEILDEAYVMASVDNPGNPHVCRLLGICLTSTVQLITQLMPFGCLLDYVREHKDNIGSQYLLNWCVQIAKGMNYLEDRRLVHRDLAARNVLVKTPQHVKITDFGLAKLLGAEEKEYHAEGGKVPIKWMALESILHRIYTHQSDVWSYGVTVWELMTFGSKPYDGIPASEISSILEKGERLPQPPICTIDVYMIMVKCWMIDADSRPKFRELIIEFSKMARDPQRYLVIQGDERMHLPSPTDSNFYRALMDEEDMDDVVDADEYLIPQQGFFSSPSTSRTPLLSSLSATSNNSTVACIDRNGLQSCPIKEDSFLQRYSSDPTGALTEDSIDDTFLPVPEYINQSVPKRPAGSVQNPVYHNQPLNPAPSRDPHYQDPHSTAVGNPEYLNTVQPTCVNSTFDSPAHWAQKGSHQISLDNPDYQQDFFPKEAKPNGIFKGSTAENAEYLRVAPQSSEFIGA

Work on `C=CC(=O)N1CC=C[C@H]1COc1cnccc1-c1[nH]c2cccnc2c1-c1ccccc1` [Example 115, 1-[(2S)-2-({[4-(3-phenyl-1H-pyrrolo[3,2-b]pyridin-2-yl)pyridin-3-yl]oxy}methyl)-2,5-dihydro-1H-pyrrol-1-yl]prop-2-en-1-one] yielded an IC50 [1] of 12.2 nM, an IC50 [2] of 0.281 nM and an IC50 [3] of 0.875 nM.

`CN(C)C/C=C/C(=O)N1CCOCC1COc1cnccc1-c1[nH]c2cccnc2c1-c1ccccc1` (stereo not drawn) [Example 150, (2E)-4-(dimethylamino)-1-[3-({[4-(3-phenyl-1H-pyrrolo[3,2-b]pyridin-2-yl)pyridin-3-yl]oxy}methyl)morpholin-4-yl]but-2-en-1-one] was tested, and the IC50 [1] was 9810 nM, the IC50 [2] was 4660 nM and the IC50 [3] was > 20000 nM.

With `C=CS(=O)(=O)N(C)CCOc1cnccc1-c1[nH]c2cccnc2c1-c1cc(CC)ccc1F` [Example 67, N-[2-({4-[3-(5-ethyl-2-fluorophenyl)-1H-pyrrolo[3,2-b]pyridin-2-yl]pyridin-3-yl}oxy)ethyl]-N-methylethenesulfonamide] the IC50 [1] was 418 nM, the IC50 [2] was 3.01 nM and the IC50 [3] was 14.6 nM.

`C/C=C/C(=O)N1CCC[C@H]1COc1cnccc1-c1[nH]c2cccnc2c1-c1ccccc1` [Example 92, (2E)-1-[(2S)-2-({[4-(3-phenyl-1H-pyrrolo[3,2-b]pyridin-2-yl)pyridin-3-yl]oxy}methyl)pyrrolidin-1-yl]but-2-en-1-one] was tested, and the IC50 [1] was 7050 nM, the IC50 [2] was 3750 nM and the IC50 [3] was > 20000 nM.

`C=CC(=O)N1CCC(Oc2cnccc2-c2[nH]c3cccnc3c2-c2cc(Cl)ccc2F)C1` (racemic) [Example 127, 1-[(3RS)-3-({4-[3-(5-chloro-2-fluorophenyl)-1H-pyrrolo[3,2-b]pyridin-2-yl]pyridin-3-yl}oxy)pyrrolidin-1-yl]prop-2-en-1-one] was tested, and the IC50 [1] was 691 nM, the IC50 [2] was 25.4 nM and the IC50 [3] was 97.6 nM.

With `CN(C)C/C=C/C(=O)N1CCC[C@H]1COc1cnccc1-c1[nH]c2cccnc2c1-c1ccc(F)c(OC(F)(F)F)c1` [Example 107, (2E)-4-(dimethylamino)-1-[(2S)-2-{[(4-{3-[4-fluoro-3-(trifluoromethoxy)phenyl]-1H-pyrrolo[3,2-b]pyridin-2-yl}pyridin-3-yl)oxy]methyl}pyrrolidin-1-yl]but-2-en-1-one] the IC50 [1] was 1510 nM, the IC50 [2] was 94.5 nM and the IC50 [3] was 342 nM.

Work on `O=C(/C=C/CN1CCCC1)N1CCC[C@H]1COc1cnccc1-c1[nH]c2cccnc2c1-c1ccccc1` [Example 99, (2E)-1-[(2S)-2-({[4-(3-phenyl-1H-pyrrolo[3,2-b]pyridin-2-yl)pyridin-3-yl]oxy}methyl)pyrrolidin-1-yl]-4-(pyrrolidin-1-yl)but-2-en-1-one] yielded an IC50 [1] of 115 nM, an IC50 [2] of 2.32 nM and an IC50 [3] of 10.8 nM.

For `C=CC(=O)N1CCC(Oc2cnccc2-c2[nH]c3cccnc3c2-c2ccccc2)C1` (racemic) [Example 116, 1-[(3RS)-3-{[4-(3-phenyl-1H-pyrrolo[3,2-b]pyridin-2-yl)pyridin-3-yl]oxy}pyrrolidin-1-yl]prop-2-en-1-one], the IC50 [1] was 1520 nM, the IC50 [2] was 52.4 nM and the IC50 [3] was 215 nM.

`C=CS(=O)(=O)N(C)CCOc1cnccc1-c1[nH]c2cccnc2c1-c1ccccc1CC` [Example 72, N-[2-({4-[3-(2-ethylphenyl)-1H-pyrrolo[3,2-b]pyridin-2-yl]pyridin-3-yl}oxy)ethyl]-N-methylethenesulfonamide] gave an IC50 [1] of 463 nM, an IC50 [2] of 5.82 nM and an IC50 [3] of 78.8 nM.

For `C=CC(=O)N1CCC[C@H]1COc1cnccc1-c1[nH]c2cccnc2c1-c1ccc2cc[nH]c2c1` [Example 84, 1-{(2S)-2-[({4-[3-(1H-indol-6-yl)-1H-pyrrolo[3,2-b]pyridin-2-yl]pyridin-3-yl}oxy)methyl]pyrrolidin-1-yl}prop-2-en-1-one], the IC50 [1] was 3560 nM, the IC50 [2] was 32.5 nM and the IC50 [3] was 154 nM.

`C=CC(=O)N(C)CCOc1cnccc1-c1[nH]c2cccnc2c1-c1cccc(C(F)(F)F)c1` [Example 49, N-methyl-N-{2-[(4-{3-[3-(trifluoromethyl)phenyl]-1H-pyrrolo[3,2-b]pyridin-2-yl}pyridin-3-yl)oxy]ethyl}prop-2-enamide] showed an IC50 [1] of 1930 nM, an IC50 [2] of 57.4 nM and an IC50 [3] of 151 nM.

`C=CS(=O)(=O)N1CCC1(C)COc1cnccc1-c1[nH]c2cccnc2c1-c1cccc(C(F)(F)F)c1` (racemic) [Example 148, 2-(3-{[(2RS)-1-(ethenesulfonyl)-2-methylazetidin-2-yl]methoxy}pyridin-4-yl)-3-[3-(trifluoromethyl)phenyl]-1H-pyrrolo[3,2-b]pyridine] was tested, and the IC50 [1] was 2780 nM, the IC50 [2] was 105 nM and the IC50 [3] was 627 nM.

`C=CC(=O)N1CCC[C@H]1COc1cnccc1-c1[nH]c2cccnc2c1-c1cc(C)ccc1F` [Example 77, 1-{(2S)-2-[({4-[3-(2-fluoro-5-methylphenyl)-1H-pyrrolo[3,2-b]pyridin-2-yl]pyridin-3-yl}oxy)methyl]pyrrolidin-1-yl}prop-2-en-1-one] gave an IC50 [1] of 27.4 nM, an IC50 [2] of 0.853 nM and an IC50 [3] of 1.97 nM.

With `C=CC(=O)N(C)CCOc1cnccc1-c1[nH]c2cccnc2c1-c1cc(OC)ccc1F` [Example 56, N-[2-({4-[3-(2-fluoro-5-methoxyphenyl)-1H-pyrrolo[3,2-b]pyridin-2-yl]pyridin-3-yl}oxy)ethyl]-N-methylprop-2-enamide] the IC50 [1] was 4180 nM, the IC50 [2] was 152 nM and the IC50 [3] was 395 nM.

`C=CS(=O)(=O)N1CCC[C@H]1COc1cnccc1-c1[nH]c2cccnc2c1-c1ccc(F)c(OC(F)(F)F)c1` [Example 108, 2-(3-{[(2S)-1-(ethenesulfonyl)pyrrolidin-2-yl]methoxy}pyridin-4-yl)-3-[4-fluoro-3-(trifluoromethoxy)phenyl]-1H-pyrrolo[3,2-b]pyridine] showed an IC50 [1] of 70.4 nM, an IC50 [2] of 0.557 nM and an IC50 [3] of 2.41 nM.

For `C=CC(=O)N1CCC[C@H]1COc1cnccc1-c1[nH]c2cccnc2c1-c1ccccc1F` [Example 89, 1-{(2S)-2-[({4-[3-(2-fluorophenyl)-1H-pyrrolo[3,2-b]pyridin-2-yl]pyridin-3-yl}oxy)methyl]pyrrolidin-1-yl}prop-2-en-1-one], the IC50 [1] was 24.2 nM, the IC50 [2] was 0.547 nM and the IC50 [3] was 2.31 nM.

`C=CC(=O)N1CCC[C@H]1COc1cnccc1-c1[nH]c2cccnc2c1-c1cc(C(F)(F)F)ccc1F` [Example 76, 1-[(2S)-2-{[(4-{3-[2-fluoro-5-(trifluoromethyl)phenyl]-1H-pyrrolo[3,2-b]pyridin-2-yl}pyridin-3-yl)oxy]methyl}pyrrolidin-1-yl]prop-2-en-1-one] was tested, and the IC50 [1] was 97.9 nM, the IC50 [2] was 2.78 nM and the IC50 [3] was 9.46 nM.
